# Results reported in ChEMBL document CHEMBL3232785, “Basic quinolinonyl diketo acid derivatives as inhibitors of HIV integrase and their activity against RNase H function of reverse transcriptase” (J Med Chem, 2014).
# The source made the active and inactive calls. The rule behind the calls is not given here.
# Legend:
# [1] = target: T1, Human immunodeficiency virus type 1 integrase (Human immunodeficiency virus 1, UniProt Q7ZJM1); assay: Inhibition of HIV1 integrase strand transfer activity by gel-based assay
# [2] = tested on: Human immunodeficiency virus 1; assay: Antiviral activity against HIV1 3B infected in human HeLa cells expressing CD4-LTR-beta-gal assessed as inhibition of viral replication after 3 days by reporter gene assay; assay type: functional, organism-based; conditions: Human immunodeficiency virus 1, 3B, 72 h
# [3] = target: T1, Human immunodeficiency virus type 1 integrase; assay: Inhibition of HIV1 integrase 3'-processing activity by gel-based assays
# HeLa = assay: Cytotoxicity against human HeLa cells expressing CD4-LTR-beta-gal after 24 hrs by ATPlite assay; assay type: cell-based
# in vitro = conditions: human, HeLa cells expressing CD4-LTR-beta-gal
# Description: Selectivity index, ratio of CC50 for human HeLa cells expressing CD4-LTR-beta-gal to EC50 for HIV1 3B
# [4] = target: Human immunodeficiency virus type 1 reverse transcriptase (Human immunodeficiency virus 1) (UniProt Q72547); assay: Inhibition of HIV1 polymerase function of reverse transcriptase up to 40 uM
# [5] = target: Human immunodeficiency virus type 1 reverse transcriptase (Human immunodeficiency virus 1, UniProt Q72547); assay: Inhibition of HIV1 RNase H function of recombinant reverse transcriptase using an 18-nt 3'-fluorescein-labeled RNA annealed to complementary 18-nt 5'-dabsyl-labeled DNA as substrate after 10 mins by fluorescence spectrometer analysis
# T1 sequence (Q7ZJM1 whole entry): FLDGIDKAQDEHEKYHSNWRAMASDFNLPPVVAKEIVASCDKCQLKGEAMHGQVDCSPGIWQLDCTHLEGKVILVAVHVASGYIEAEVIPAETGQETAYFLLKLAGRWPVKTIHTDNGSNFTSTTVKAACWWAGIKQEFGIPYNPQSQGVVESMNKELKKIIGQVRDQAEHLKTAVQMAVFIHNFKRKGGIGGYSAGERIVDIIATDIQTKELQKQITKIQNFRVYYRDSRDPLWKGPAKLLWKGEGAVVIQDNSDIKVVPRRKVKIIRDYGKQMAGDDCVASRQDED
SMILES,IC50 [1] [µM],EC50 [2] [µM],IC50 [3] [µM],CC50 (HeLa) [µM],selectivity ratio (in vitro),inhibition [4],IC50 [5] [µM]
CCOC(=O)/C(O)=C/C(=O)c1cn(Cc2ccc(F)cc2)c2cc(N3CCCC3)ccc2c1=O,–,–,–,> 50,–,–,–
CC(=O)N1CCN(c2ccc3c(=O)c(C(=O)/C=C(\O)C(=O)O)cn(Cc4ccc(F)cc4)c3c2)CC1,–,–,–,> 50,–,–,–
CCOC(=O)/C(O)=C/C(=O)c1cn(Cc2ccc(F)cc2)c2cc(N3CCN(C)CC3)ccc2c1=O,–,–,–,> 50,–,–,–
O=C(O)/C(O)=C/C(=O)c1cn(Cc2ccc(F)cc2)c2cc(N3CCOCC3)ccc2c1=O,0.08,26.3,13,> 50,> 1.9,inactive,6.8
O=C(O)/C(O)=C/C(=O)c1cn(Cc2ccc(F)cc2)c2cc(N3CCN(CCCCl)CC3)ccc2c1=O,0.05,> 50,4.6,–,–,inactive,5.7
O=C(O)/C(O)=C/C(=O)c1cn(Cc2ccc(F)cc2)c2cc(N3CCCC3)ccc2c1=O,–,–,–,> 50,–,inactive,5.1
O=C(O)/C(O)=C/C(=O)c1cn(Cc2ccc(F)cc2)c2cc(N3CCSCC3)ccc2c1=O,0.36,> 50,30,–,–,–,–
Cc1nnc(C(=O)NC(C)(C)c2nc(C(=O)NCc3ccc(F)cc3)c(O)c(=O)n2C)o1,–,–,–,> 50,–,–,–
CCOC(=O)/C(O)=C/C(=O)c1cn(Cc2ccc(F)cc2)c2cc(N3CCN(CC)CC3)ccc2c1=O,–,–,–,> 50,–,–,–
CCOC(=O)/C(O)=C/C(=O)c1cn(Cc2ccc(F)cc2)c2cc(N3CCN(CCCCl)CC3)ccc2c1=O,1.3,13.2,102,> 50,> 3.7,–,–

# Continued, in another order:
IC50 [1] [µM],EC50 [2] [µM],IC50 [3] [µM],SMILES,CC50 (HeLa) [µM],selectivity ratio (in vitro),inhibition [4],IC50 [5] [µM]
2.9,> 50,41,CCOC(=O)/C(O)=C/C(=O)c1cn(Cc2ccc(F)cc2)c2cc(N(C)C)ccc2c1=O,–,–,–,–
0.17,> 50,17,CCOC(=O)/C(O)=C/C(=O)c1cn(Cc2ccc(F)cc2)c2cc(N3CCN(C(C)=O)CC3)ccc2c1=O,–,–,–,–
–,0.0142,–,COc1cc2c(cc1Cc1cccc(Cl)c1F)c(=O)c(C(=O)O)cn2[C@H](CO)C(C)C,> 50,–,–,–
–,> 50,–,O=C(O)/C(O)=C/C(=O)c1cn(Cc2ccc(F)cc2)c2cc(N3CCNCC3)ccc2c1=O,–,–,–,–
0.21,> 50,23,CCN1CCN(c2ccc3c(=O)c(C(=O)/C=C(\O)C(=O)O)cn(Cc4ccc(F)cc4)c3c2)CC1,–,–,–,–
2.1,16.2,> 111,CCOC(=O)/C(O)=C/C(=O)c1cn(Cc2ccc(F)cc2)c2cc(N3CCOCC3)ccc2c1=O,> 50,> 3,–,–
0.1,> 50,8.5,CN1CCN(c2ccc3c(=O)c(C(=O)/C=C(\O)C(=O)O)cn(Cc4ccc(F)cc4)c3c2)CC1,–,–,–,–
–,> 50,–,CN(C)c1ccc2c(=O)c(C(=O)/C=C(\O)C(=O)O)cn(Cc3ccc(F)cc3)c2c1,–,–,–,–
24,20.9,> 333,CCOC(=O)/C(O)=C/C(=O)c1cn(Cc2ccc(F)cc2)c2cc(N3CCNCC3)ccc2c1=O,> 50,> 2.4,–,–
